From patent publication US20230212653A1, “METHODS AND MATERIALS FOR ASSESSING HOMOLOGOUS RECOMBINATION DEFICIENCY IN BREAST CANCER SUBTYPES” (Myriad Genetics, Inc., priority 2021, published 2023)

Test system: triple negative breast cancer (TNBC)
Test: Pathologic response of a neoadjuvant TNBC cohort treated with cisplatin (Example 6)
Assay type: in vivo, human
Settings: for PR = yes, % response / pCR = yes, % response: secondary analysis; for pCR = yes, % response: n=51
Experimental: Analysis of a neoadjuvant TNBC cohort treated with cisplatin was examined relative to the relationship between all three HRD scores and response. All p values were from logistic regression models with response to cisplatin as the dependent variable.
HR Deficiency status was determined for 62 of the 70 samples (70 individual patients) received from a cisplatin cohort (8 had insufficient tumors for analysis). Of these, 31 (50%) were HR deficient, 22 (35%) were non-HR deficient, and 9 (15%) were undetermined. FIG. 15 provides a histogram showing the distribution of HRD scores in the cohort. Scores ≥42 were considered to have high HRD (see also, Example 5). […] Pathologic complete response (pCR), which is associated with long-term survival, was defined as a residual cancer burden (RBC) of 0 and observed in 11/59 (19%) samples. […] These overall response rates correlated with monotherapy expectations.
Statistical analyses followed a predefined Statistical Analysis Plan (SAP), which included primary, secondary, and BRCA wild-type subset analyses.

N.N.[Cl][Pt][Cl] [cisplatin]
PR = yes, % response (BRCA Mutant): 5 (55.6%)
pCR = yes, % response (BRCA Mutant): 3 (33.3%)
PR = yes, % response (BRCA Non-mutant): 13 (31.0%)
pCR = yes, % response (BRCA Non-mutant): 5 (11.9%)
Pathologic complete response (pCR) rate (whole cisplatin cohort, 11/59 samples, pCR = residual cancer burden 0): 19%
Pathologic response (PR) rate (whole cisplatin cohort, 22/59 samples, PR = residual cancer burden 0 or 1): 37%
